Values after ≈ are worked out from the molar mass of the structure shown. Where no end group is shown, it is not given here.
What was measured:
Assay in all cases: microbe, parasite or virus in culture
Assay type in all cases: cell-based
[1] = tested on: Candida albicans (ATCC 10231)
Procedure: (§1) StAMP-1–11 were screened for antifungal activity against C. albicans (Ca, ATCC 10231), A. pullulans (Ap) and Rhodotorula sp. (Rh) (the last two were obtained from professor Arne Tronsmo, The Norwegian University of Life Sciences, Ås, Norway). The antifungal assay was performed as previously described with a few modifications. Briefly, fungal spores were dissolved in potato dextrose broth (Difco Laboratories) with 2% D(+)-glucose (Merck, Darmstadt, Germany) to a concentration of 4 × 10^5 spores/mL. The spores (50 µL) were inoculated on 96 microwell plates (Thermo Fisher Scientific) containing the synthetic peptides (50 µL) and controls (water or antibiotic). The peptides were diluted in MQ-H2O at final concentrations ranging from 250–3.9 µg/mL in two-fold serial dilutions. Triclosan (Sigma-Aldrich, Steinheim, Germany) was used as a positive (antifungal) control (32–0.25 µg/mL), and MQ-H2O as a negative (growth) control. Cultures were grown in room temperature for 24 h (Ca) and 48 h (Ap and Rh). Growth inhibition was determined by measuring OD values at 600 nm by a microplate reader (Synergy H1 Hybrid Multi-Mode Reader, BioTek, Winooski, VT, USA). […] All experiments were done in triplicate.

[2] = tested on: Rhodotorula sp.
Procedure: as §1

[3] = tested on: Aureobasidium pullulans
Procedure: as §1

[4] = tested on: Micrococcus luteus
Procedure: (§2) The synthesized peptides were screened for antibacterial activity against five strains of G+ bacteria: B. subtilis (Bs, ATCC 23857), C. glutamicum (Cg, ATCC 13032), S. aureus (Sa, ATCC 9144), Micrococcus luteus (Ml), B. megaterium (Bm) (the last two were obtained from professor Olaf B. Styrvold, UiT The Arctic University of Norway).
(§3) Two strains of G- bacteria, P. aeruginosa (Pa, ATCC 27853) and E. coli (Ec, ATCC 25922), were also used. Cultures stored at -80 °C in glycerol were transferred to Müller–Hinton plates (MH, Difco Laboratories, Detroit, MI, USA) and incubated for 24 h at 35 °C. Colonies of each strain were transferred to 5 mL liquid MH medium and left shaking (600 rpm) at room temperature overnight. An aliquot of actively growing bacteria (20 µL) was inoculated in 5 mL MH medium and left shaking for 2 h at room temperature. In order to have a sensitive bioassay, the bacterial cultures were diluted with medium to only 2.5–3 × 10^4 bacteria/mL and an aliquot of 50 µL was added to each well in 96 microwell plates (Thermo Fisher Scientific, Roskilde, Denmark) preloaded with peptide solution (50 µL). The antibacterial assays were performed as previously described. The microtiter plates were incubated for 24 h at 35 °C with optical density (595 nm) recorded every hour using an Envision 2103 multilabel reader, controlled by a Wallac Envision manager (PerkinElmer, Waltham, MA, USA). The minimum inhibitory concentration (MIC) was defined as the sample concentration showing an optical density less than 10% of the negative (growth) control, consisting of bacteria and MQ-H2O. Oxytetracycline (concentrations ranging from 20–0.02 µg/mL, Sigma-Aldrich) and indolicidin (concentration ranging from 200–0.2 µg/mL, Sigma-Aldrich) served as a positive (inhibition) control. The synthetic peptides were tested for antibacterial activity in concentrations ranging from 250 to 0.5 µg/mL in two-fold dilutions. All tests were performed in triplicates.

[5] = tested on: Bacillus megaterium
Procedure: as §2, §3

[6] = tested on: Staphylococcus aureus (ATCC 9144)
Procedure: as §2, §3

[7] = tested on: Corynebacterium glutamicum (ATCC 13032)
Procedure: as §2, §3

[8] = tested on: Bacillus subtilis (ATCC 23857)
Procedure: as §2, §3

[9] = tested on: Escherichia coli (ATCC 25922)
Procedure: as §3

[10] = tested on: Pseudomonas aeruginosa (ATCC 27853)
Procedure: as §3

[11] = potato dextrose broth with 2% glucose, room temperature 48 h, OD 600 nm, >90% inhibition, triplicate

Row | Compound | Antimicrobial Activity (MIC) Ca ([1]; ATCC 10231, 24 h) [µg/mL] | Antimicrobial Activity (MIC) Rh ([2]; 48 h) [µg/mL] | Antimicrobial Activity (MIC) Ap ([3]; 48 h) [µg/mL] | Antimicrobial Activity (MIC) Ml ([4]; 24 h) [µg/mL] | Antimicrobial Activity (MIC) Bm ([5]; Bacillus, 24 h) [µg/mL] | Antimicrobial Activity (MIC) Sa ([6]; ATCC 9144, 24 h) [µg/mL] | Antimicrobial Activity (MIC) Cg ([7]; ATCC 13032, 24 h) [µg/mL] | Antimicrobial Activity (MIC) Bs ([8]; ATCC 23857, 24 h) [µg/mL] | Antimicrobial Activity (MIC) Ec ([9]; ATCC 25922, 24 h) [µg/mL] | Antimicrobial Activity (MIC) Pa ([10]; ATCC 27853, 24 h) [µg/mL] | other results
1 | CC[C@H](C)[C@H](N)C(=O)N[C@@H](CC(C)C)C(=O)N1CCC[C@H]1C(=O)N[C@@H](Cc1c[nH]c2ccccc12)C(=O)N[C@@H](CCCCN)C(=O)N[C@@H](Cc1c[nH]c2ccccc12)C(=O)N1CCC[C@H]1C(=O)N[C@@H](Cc1c[nH]c2ccccc12)C(=O)N[C@@H](Cc1c[nH]c2ccccc12)C(=O)N1CCC[C@H]1C(=O)N[C@@H](Cc1c[nH]c2ccccc12)C(=O)N[C@@H](CCCNC(=N)N)C(=O)N[C@@H](CCCNC(=N)N)C(N)=O [Indolicidin, reference compound] |  |  |  |  |  |  |  |  |  |  | Antimicrobial Activity (MIC) Ca ([1]; potato dextrose broth with 2% glucose, room temperature 24 h, OD 600 nm, >90% inhibition, triplicate): 100 µg/mL; Antimicrobial Activity (MIC) Rh [2, 11]: 25.0 µg/mL; Antimicrobial Activity (MIC) Ap [3, 11]: 25.0 µg/mL; Antimicrobial Activity (MIC) Ml ([4]; Micrococcus luteus, MH medium, 24 h at 35 °C, OD 595 nm <10% of growth control, triplicates): 12.5 µg/mL; Antimicrobial Activity (MIC) Bm ([5]; Bacillus megaterium, MH medium, 24 h at 35 °C, OD 595 nm <10% of growth control, triplicates): 3.1 µg/mL; Antimicrobial Activity (MIC) Sa ([6]; Staphylococcus aureus, MH medium, 24 h at 35 °C, OD 595 nm <10% of growth control, triplicates): 12.5 µg/mL; Antimicrobial Activity (MIC) Cg ([7]; Corynebacterium glutamicum, MH medium, 24 h at 35 °C, OD 595 nm <10% of growth control, triplicates): 1.6 µg/mL; Antimicrobial Activity (MIC) Bs ([8]; Bacillus subtilis, MH medium, 24 h at 35 °C, OD 595 nm <10% of growth control, triplicates): 6.3 µg/mL; Antimicrobial Activity (MIC) Ec ([9]; Escherichia coli, MH medium, 24 h at 35 °C, OD 595 nm <10% of growth control, triplicates): 25.0 µg/mL; Antimicrobial Activity (MIC) Pa ([10]; Pseudomonas aeruginosa, MH medium, 24 h at 35 °C, OD 595 nm <10% of growth control, triplicates): >250 µg/mL
2 | CN(C)[C@@H]1C(O)=C(C(N)=O)C(=O)[C@@]2(O)C(O)=C3C(=O)c4c(O)cccc4[C@@](C)(O)[C@H]3[C@H](O)[C@@H]12 [Oxytetracycline, reference compound] |  |  |  |  |  |  |  |  |  |  | MIC ([4]; Micrococcus luteus, MH medium, 24 h at 35 °C, OD 595 nm <10% of growth control, triplicates, read-out: Antimicrobial Activity (MIC) Ml): 1.3 µg/mL (≈ 2.82 µM); MIC ([5]; Priestia megaterium, Bacillus megaterium, MH medium, 24 h at 35 °C, OD 595 nm <10% of growth control, triplicates, read-out: Antimicrobial Activity (MIC) Bm): 0.6 µg/mL (≈ 1.3 µM); MIC ([6]; ATCC9144, Staphylococcus aureus, MH medium, 24 h at 35 °C, OD 595 nm <10% of growth control, triplicates, read-out: Antimicrobial Activity (MIC) Sa): 0.04 µg/mL (≈ 0.0869 µM); MIC ([7]; ATCC13032, Corynebacterium glutamicum, MH medium, 24 h at 35 °C, OD 595 nm <10% of growth control, triplicates, read-out: Antimicrobial Activity (MIC) Cg): 0.2 µg/mL (≈ 0.434 µM); MIC ([8]; ATCC23857, Bacillus subtilis, MH medium, 24 h at 35 °C, OD 595 nm <10% of growth control, triplicates, read-out: Antimicrobial Activity (MIC) Bs): 10 µg/mL (≈ 21.7 µM); MIC ([9]; ATCC25922, Escherichia coli, MH medium, 24 h at 35 °C, OD 595 nm <10% of growth control, triplicates, read-out: Antimicrobial Activity (MIC) Ec): 1.3 µg/mL (≈ 2.82 µM); MIC ([10]; ATCC27853, Pseudomonas aeruginosa, MH medium, 24 h at 35 °C, OD 595 nm <10% of growth control, triplicates, read-out: Antimicrobial Activity (MIC) Pa): 2.5 µg/mL (≈ 5.43 µM)
3 | Oc1cc(Cl)ccc1Oc1ccc(Cl)cc1Cl [Triclosan, reference compound] |  |  |  |  |  |  |  |  |  |  | MIC ([1]; Candida albicans, ATCC10231, 24 h, read-out: Antimicrobial Activity (MIC) Ca): 3.1 µg/mL; MIC ([2]; Rhodotorula, 48 h, read-out: Antimicrobial Activity (MIC) Rh): 1.6 µg/mL; MIC ([3]; Aureobasidium pullulans, 48 h, read-out: Antimicrobial Activity (MIC) Ap): 3.1 µg/mL
4 | GKKPGGWKAK-NH2 [StAMP-1] | >250 | >250 | >250 | >250 | 250 | >250 | 250 | >250 | >250 | >250 | 
5 | GKKPGWWKAK-NH2 [StAMP-4] | 62.5 | 31.3 | 62.5 | 125 | 3.9 | >250 | 3.9 | 125 | >250 | >250 | 
6 | GKKPWGWKAK-NH2 [StAMP-3] | 125 | 62.5 | 62.5 | 250 | 3.9 | >250 | 15.6 | >250 | >250 | >250 | 
7 | GKKWGGWKAK-NH2 [StAMP-2] | 125 | 62.5 | 62.5 | 250 | 3.9 | >250 | 31.3 | 125 | >250 | >250 | 
8 | GKKWGWWKAK-NH2 [StAMP-6] | 62.5 | 31.3 | 62.5 | 62.5 | 1.0 | 250 | 3.9 | 3.9 | 62.5 | >250 | 
9 | GKKWWGWKAK-NH2 [StAMP-5] | 31.3 | 15.6 | 31.3 | 15.6 | 1.0 | >250 | 2.0 | 15.6 | 31.3 | 250 | 
10 | GRRPLLLRAR-NH2 [StAMP-11] | 125 | 31.3 | 250 | 62.5 | 7.8 | >250 | 31.3 | >250 | >250 | >250 | 
11 | GRRWWWWRAR-NH2 [StAMP-10] | 62.5 | 15.6 | 62.5 | 15.6 | 3.9 | 62.5 | 7.8 | 7.8 | 15.6 | 31.3 | 
